In brackets after ≈: the same amount, converted by molar mass.
Assays:
[1] = RP-HPLC retention time as relative hydrophobicity; assay type: physicochemical; conditions: 25 °C, used by the paper as measure of relative hydrophobicity
Experimental: The RP-HPLC retention time has been widely used to represent the relative hydrophobicity of peptides in many studies.The relative hydrophobicity of the peptides was determined by the RP-HPLC retention times at 25 °C. The change in hydrophobicity of the peptides caused by D-amino acid substitutions was mainly due to the disruption of the helical structure.

S. epidermidis ATCC12228 = test: Antimicrobial activity, microtiter dilution MIC; assay type: cell-based, Staphylococcus epidermidis; conditions: G+; MH medium, 5 × 10^5 CFU/mL, 37 °C, 24 h, triplicate
Experimental: (§1) The antimicrobial activity of the peptides was determined by the standard microtiter dilution method and indicated as MIC (minimal inhibitory concentration) as described previously. Briefly, bacteria were cultured in Mueller–Hinton (MH) medium overnight at 37 °C, diluted to a final inoculum of 5 × 10^5 colony-forming units (CFU)/mL with MH and loaded into 96-well microtiter plates (90 μL/well) with serial dilution of peptides (10 μL/well), with a further incubation at 37 °C for 24 h. MIC was expressed as the lowest peptide concentration that inhibited the growth of bacteria. The antimicrobial assays were repeated in triplicate.

S. aureus ATCC25923 = test: Antimicrobial activity, microtiter dilution MIC; assay type: cell-based, Staphylococcus aureus; conditions: G+; MH medium, 5 × 10^5 CFU/mL, 37 °C, 24 h, triplicate
Experimental: as §1

P. aeruginosa ATCC27853 = test: Antimicrobial activity, microtiter dilution MIC; assay type: cell-based, Pseudomonas aeruginosa; conditions: G−; MH medium, 5 × 10^5 CFU/mL, 37 °C, 24 h, triplicate
Experimental: as §1

E. coli ATCC25922 = test: Antimicrobial activity, microtiter dilution MIC; assay type: cell-based, Escherichia coli; conditions: G−; MH medium, 5 × 10^5 CFU/mL, 37 °C, 24 h, triplicate
Experimental: as §1

[2] = Circular dichroism (CD) secondary structure; assay type: physicochemical; conditions: for [θ]222, benign / [θ]222, 50% TFE: CD, 75 μM peptide, 25 °C; for [θ]222, benign: KP buffer (100 mM KCl, 50 mM KH2PO4/K2HPO4, pH 7.4); for [θ]222, 50% TFE / α-Helix (%), 50% TFE (relative helicity): KP buffer with 50% TFE; for α-Helix (%), 50% TFE (relative helicity) / α-Helix (%), benign: relative to molar ellipticity of V13K in 50% TFE; for α-Helix (%), benign: KP buffer
Description: The influence of the amino acid substitutions on the peptide secondary structure were investigated using circular dichroism (CD) spectroscopy under benign conditions (KP buffer) and under conditions designed to mimic the hydrophobic environment of the membrane (KP buffer with 50% TFE). D-amino acid substitutions reduced the helicity of the peptide analogs relative to that of peptide V13K, in both KP buffer and KP buffer with 50% TFE. […] As shown in Table 2 and Figure S1, the values of the relative helicity of peptides with polar face substitutions are in the order of K14D (76.99%) > S11D/K14D (51.33%) > S11D/K14D/T15D (38.67%). Similarly, the relative helicity of the peptides with substitutions on the non-polar face follows the same trend: A12D (70.83%) > F9D/A12D (38.26%) > F9D/A12D/V16D (36.41%). Since the values of the relative helicity of the peptides with D-amino acid substitutions on the non-polar face were less than those peptide analogs with the same number of D-amino acid substitutions on the polar face, it is clear that the amino acid residues on the non-polar face may be more important for stabilizing the α-helical structure than residues on the polar face.
The secondary structures of the peptides were examined using a Jasco J-810 CD spectrometer (Jasco, Easton, MD, USA) at 25 °C as described previously. […] The mean residue molar ellipticities were calculated according to the equation [θ] = θ/10lCMn, in which, θ represents the ellipticity in millidegrees, l is the optical path length of the cuvette in centimeters, CM is the peptide concentration in mol/L, and n is the number of residues in the peptide. The mean residue molar ellipticities at 222 nm, [θ]222 (degree·cm^2·dmol^−1), were used to calculate the relative helical content of the peptides.

HeLa = test: MTT cell viability assay; assay type: cell-based, human; conditions: 24 h, mean ± SEM of three independent determinations
Experimental: (§2) HeLa, MIA PaCa-2, HPAC, and Bxpc-3 cells were maintained in Dulbecco’s modified Eagle medium) with 10% fetal bovine serum, penicillin (100 U/mL), and streptomycin ([…]) in a humid atmosphere at 37 °C with 5% CO2. The effect of the peptides on the survival of HeLa, MIA PaCa-2, HPAC, and Bxpc-3 cells was determined by 3-(4,5-dimethyl-2-thiazolyl)-2,5-diphenyl-2H-tetrazolium bromide (MTT) assay, as described in a previous study. Briefly, cells were seeded in 96-well plates at a density of 5000 per well. After overnight incubation, cells were incubated, in the absence, or presence of various concentrations of peptides for 24 h. Then, the formazan crystals formed by MTT were dissolved with dimethyl sulfoxide (DMSO) and the absorbance was determined at 492 nm with a microplate reader (GF-M3000; Gaomi Caihong Analytical Instruments Co., Shandong, China). The results were expressed as IC50 values, representing the concentration at which cell viability was reduced by 50%. The cytotoxicity assays were repeated in triplicate.

BxPC-3 = test: MTT cell viability assay; assay type: cell-based, human; conditions: BxPC-3, MTT, 24 h; mean ± SEM of three independent determinations
Experimental: as §2

MIA PaCa-2 = test: MTT cell viability assay; assay type: cell-based, human; conditions: MIA PaCa-2, MTT, 24 h; mean ± SEM of three independent determinations
Experimental: as §2

HPAC = test: MTT cell viability assay; assay type: cell-based, human; conditions: 24 h, mean ± SEM of three independent determinations
Experimental: as §2

[3] = tested on: human red blood (hRBC) cells; test: Hemolytic activity assay; assay type: cell-based; conditions: for MHC (minimal hemolytic concentration): 2% human RBC in PBS, 37 °C, 2 h, absorbance 578 nm, triplicate
Experimental: The […] of the peptides was measured by a hemolytic activity assay as described previously. Briefly, healthy human RBCs were collected using an anticoagulation tube with EDTAK2 and centrifuged at 1000 rpm for 5 min. The erythrocytes were washed three times, then diluted to a concentration of 2% in phosphate-buffered saline (PBS). The peptides were serially diluted in PBS and 70 μL of the peptide solutions and 2% RBC suspension were added simultaneously to each well of a 96-well plate (round bottom) for a further incubation at 37 °C for 2 h. Then, the plates were centrifuged for 10 min at 3000 rpm and the supernatant (90 μL) was transferred to a 96-well plate (flat bottom). The absorbance of the supernatant was measured on a microplate reader at 578 nm. Erythrocytes in PBS and distilled water were used as the negative (0%) and positive (100%) controls, respectively. The hemolytic activity was calculated as the percentage of experimental group over positive control (100%), after subtraction of negative control (0%). The hemolytic assays were repeated in triplicate.

SMILES | tR (RP-HPLC retention time), relative hydrophobicity [1] | MIC (S. epidermidis ATCC12228) | MIC (S. aureus ATCC25923) | MIC (P. aeruginosa ATCC27853) | MIC (E. coli ATCC25922) | [θ]222, benign [2] | [θ]222, 50% TFE [2] | α-Helix (%), 50% TFE (relative helicity) [2] | α-Helix (%), benign [2] | IC50 (HeLa) | IC50 (BxPC-3) | IC50 (MIA PaCa-2) | IC50 (HPAC) | MHC (minimal hemolytic concentration) [3] | Hemolytic activity compared with V13K ([3]; human red blood cells)
CC[C@H](C)[C@H](NC(=O)[C@H](C)NC(=O)[C@H](CCCCN)NC(=O)[C@H](CC(C)C)NC(=O)[C@H](C)NC(=O)[C@@H](NC(=O)[C@H](Cc1c[nH]cn1)NC(=O)[C@H](CC(C)C)NC(=O)[C@@H](NC(=O)[C@H](NC(=O)[C@@H](CCCCN)NC(=O)[C@H](CCCCN)NC(=O)[C@H](C)NC(=O)[C@H](CO)NC(=O)[C@H](CCCCN)NC(=O)[C@H](Cc1ccccc1)NC(=O)[C@@H](NC(=O)[C@H](CCCCN)NC(=O)[C@H](CC(C)C)NC(=O)[C@H](Cc1ccccc1)NC(=O)[C@H](CO)NC(=O)[C@H](CCCCN)NC(=O)[C@H](Cc1c[nH]c2ccccc12)NC(=O)[C@H](CCCCN)NC(C)=O)[C@@H](C)O)[C@H](C)O)C(C)C)[C@@H](C)O)C(=O)N[C@@H](CO)C(=O)N[C@@H](CO)C(N)=O [K14D/T15D] | 40.41 min | 16 µM (≈ 47.9 µg/mL) | 64 µM (≈ 191 µg/mL) | 32 µM (≈ 95.7 µg/mL) | 64 µM (≈ 191 µg/mL) | −1862.4 degree·cm^2·dmol^−1 | −28,551.5 degree·cm^2·dmol^−1 | 56.51% | 3.7% | 31.6 ± 2.1 µM | 24.1 ± 5.5 µM | 47.1 ± 5.3 µM | 22.5 ± 0.5 µM | 250 µM | 
CC[C@H](C)[C@H](NC(=O)[C@H](C)NC(=O)[C@H](CCCCN)NC(=O)[C@H](CC(C)C)NC(=O)[C@H](C)NC(=O)[C@@H](NC(=O)[C@H](Cc1c[nH]cn1)NC(=O)[C@H](CC(C)C)NC(=O)[C@@H](NC(=O)[C@@H](NC(=O)[C@@H](CCCCN)NC(=O)[C@H](CCCCN)NC(=O)[C@H](C)NC(=O)[C@@H](CO)NC(=O)[C@H](CCCCN)NC(=O)[C@H](Cc1ccccc1)NC(=O)[C@@H](NC(=O)[C@H](CCCCN)NC(=O)[C@H](CC(C)C)NC(=O)[C@H](Cc1ccccc1)NC(=O)[C@H](CO)NC(=O)[C@H](CCCCN)NC(=O)[C@H](Cc1c[nH]c2ccccc12)NC(=O)[C@H](CCCCN)NC(C)=O)[C@@H](C)O)[C@@H](C)O)C(C)C)[C@@H](C)O)C(=O)N[C@@H](CO)C(=O)N[C@@H](CO)C(N)=O [S11D/K14D] | 40.77 min | 16 µM (≈ 47.9 µg/mL) | 64 µM (≈ 191 µg/mL) | 32 µM (≈ 95.7 µg/mL) | 64 µM (≈ 191 µg/mL) | −3524.85 degree·cm^2·dmol^−1 | −25,931.3 degree·cm^2·dmol^−1 | 51.33% | 7.0% | 30.6 ± 0.5 µM | 22.4 ± 2.3 µM | 41.3 ± 2.6 µM | 25.5 ± 0.5 µM | 125 µM | 
CC[C@H](C)[C@H](NC(=O)[C@H](C)NC(=O)[C@H](CCCCN)NC(=O)[C@H](CC(C)C)NC(=O)[C@H](C)NC(=O)[C@@H](NC(=O)[C@H](Cc1c[nH]cn1)NC(=O)[C@H](CC(C)C)NC(=O)[C@H](NC(=O)[C@@H](NC(=O)[C@H](CCCCN)NC(=O)[C@H](CCCCN)NC(=O)[C@@H](C)NC(=O)[C@H](CO)NC(=O)[C@H](CCCCN)NC(=O)[C@H](Cc1ccccc1)NC(=O)[C@@H](NC(=O)[C@H](CCCCN)NC(=O)[C@H](CC(C)C)NC(=O)[C@H](Cc1ccccc1)NC(=O)[C@H](CO)NC(=O)[C@H](CCCCN)NC(=O)[C@H](Cc1c[nH]c2ccccc12)NC(=O)[C@H](CCCCN)NC(C)=O)[C@@H](C)O)[C@@H](C)O)C(C)C)[C@@H](C)O)C(=O)N[C@@H](CO)C(=O)N[C@@H](CO)C(N)=O [A12D/V16D] | 39.79 min | 125 µM (≈ 374 µg/mL) | 125 µM (≈ 374 µg/mL) | 32 µM (≈ 95.7 µg/mL) | 125 µM (≈ 374 µg/mL) | −3435.72 degree·cm^2·dmol^−1 | −23,452.9 degree·cm^2·dmol^−1 | 46.42% | 6.8% | 60.1 ± 1.2 µM | 125 ± 5.9 µM | 46.2 ± 3 µM | 41.4 ± 1.4 µM | >500 µM | much less hemolytic activity than V13K
